Assay results: US9562059B2, “Anticancer maytansinoids with two fused macrocyclic rings” (priority 2013, dated 2017)
“Also recorded” adds a separate entry of the source. Like-named read-outs stand apart in the source and are kept apart here.

How the values were obtained:
[1] = tested on: HCT116 cancer cells; assay: HCT116 xenograft mouse model, tumor growth; type: in vivo, nude mice; conditions: for average tumor size (L×W×W) suppressed in comparison with the control group: after 21 days
Description: (§1) HCT116 cancer cells (2×10^7 cells in 100 μL suspension) are subcutaneously implanted in the rear flank of each mouse. After 10 days, solid tumors appear at the implanted sites. […] Daily injections at i.v. sites were scheduled for 21 days.
(§2) FIGS. 1 to 3 show the inhibition of HCT116-tumor xenograft growth by loeseneriellin B. The treatment started on the 10th day when the tumor size reached approximately 100 mm^3 (L×W×W).

[2] = tested on: human lung carcinoma Lu1 cell line; assay: Cell culture panel bioassay, Lu1 cell line; type: cell-based
Excerpt: (§3) Human oral epidermoid carcinoma KB cell line, human promyelocytic leukemia HL-60 cell line, human prostate carcinoma LNCaP cell line, human breast carcinoma MCF-7 cell line, human colon carcinoma Col2 cell line, and human lung carcinoma Lu1 cell line are activated from the frozen cells that are stored in Department of Medicinal Chemistry and Pharmacognosy, University of Illinois at Chicago, Chicago, Ill. Col2 cells are maintained in MEME medium. KB cells are maintained in DMEM medium. LNCaP cells are maintained in RPMI1640 medium with hormone-free 10% […] FBS (fetal bovine serum) supplemented with 0.1 nM testosterone, Lu1 cells are cultured in MEME medium. MCF-7 cells are maintained in MEME medium containing 10 mg/L of insulin. In each case, PSF (100 units/mL penicillin G, 100 μg/mL streptomycin sulfate, 250 ng/mL amphotericin B) is added. All media are supplemented with 10% heat-inactivated FBS.
(§4) Extracts, fractions, and compounds are tested in a human oral epidermoid carcinoma (KB) cell line using established protocols. In addition, all pure compounds are evaluated against the other human cancer cell lines comprising our cytotoxicity screening panel. Cytotoxicity assays involving colon (Col-2), prostate (LNCaP), and lung (Lu1) carcinoma cell lines are performed using sulforhodamine B according to established protocols.

[3] = tested on: human prostate carcinoma LNCaP cell line; assay: Cell culture panel bioassay, LNCaP cell line; type: cell-based; conditions: for IC50: read-out: IC50 LNCaP
Excerpt: as §3, §4

[4] = tested on: human colon carcinoma Col2 cell line; assay: Cell culture panel bioassay, Col2 cell line; type: cell-based
Excerpt: as §3, §4

[5] = tested on: Lu1 cells; assay: In vivo hollow fiber test, Lu1 cells; design: species or system mice
Description: (§5) Hollow fiber tests are well known in the art for providing preliminary indications of therapeutic efficacy (Mi et al. (2002), J. Nat. Prod. 65: 842-850). In hollow fiber tests, human tumor cell lines currently employed in cell cultures are grown inside semipermeable hollow fibers to form heterogeneous solid tumor models. The hollow fibers containing the human tumor cells are implanted in the intraperitoneal or subcutaneous compartments of host mice, and the mice treated with the test compound of interest (Hollingshead et al, (1995), Life Sciences 57(2):131-141).
(§6) Loeseneriellin B isolated from Loeseneriella pauciflora (Celastraceae) is tested for in vivo hollow fiber study.

[6] = tested on: human breast carcinoma MCF-7 cell line; assay: Cell culture panel bioassay, MCF-7 cell line; type: cell-based
Excerpt: as §3, §4

[7] = tested on: Col2 cells; assay: In vivo hollow fiber test, Col2 cells; design: species or system mice
Description: as §5, §6

[8] = tested on: MCF7 cells; assay: In vivo hollow fiber test, MCF7 cells; design: species or system mice
Description: as §5, §6

[9] = tested on: KB, Col-2, LNCaP, Lu-1, and MCF-7 cell lines; assay: In vitro anti-tumor activity against the tumor cell line panel; type: cell-based, human; conditions: Lu-1, MCF-7
Description: The in vitro anti-tumor activity of isolated compounds (1-6) is evaluated against KB, Col-2, LNCaP, Lu-1, and MCF-7 cell lines. […] However, because of the much different stereochemistry, the bimacrocyclic maytansinoid may have a different anticancer therapeutic window from that of mono-macrocyclic maytansine derivatives.
as §3, with “In each case, PSF (100 units/mL penicillin G, 100 μg/mL streptomycin sulfate, 250 ng/mL amphotericin B) is added. All media are supplemented with 10% heat-inactivated FBS.” left out
Extracts, fractions, and compounds are tested in a human oral epidermoid carcinoma (KB) cell line using established protocols. In addition, all pure compounds are evaluated against the other human cancer cell lines comprising our cytotoxicity screening panel. […]

[10] = HCT116 xenograft mouse model, body weight; type: in vivo, nude mice; conditions: 20 and 40 μg/kg i.v. daily for 3 weeks (FIG. 3)
Description: as §1, §2

[11] = tested on: human oral epidermoid carcinoma KB cell line; assay: Cell culture panel bioassay, KB cell line; type: cell-based; conditions: read-out: IC50 KB
Excerpt: as §3, §4

[12] = cited from earlier work
[13] = tested on: KB cells; conditions: Powell et al. (1982); cited from earlier work
[14] = tested on: P388 lymphocytic leukemia; conditions: Powell et al. (1982); cited from earlier work
[15] = concentration required to inhibit cell growth by 50%, triplicate experiments, read-out: IC50 Lu1
[16] = concentration required to inhibit cell growth by 50%, triplicate experiments
[17] = concentration required to inhibit cell growth by 50%, triplicate experiments, read-out: IC50 Col2
[18] = concentration required to inhibit cell growth by 50%, triplicate experiments, read-out: IC50 MCF-7

## CC(=O)O[C@H]1C(=O)[C@@]2(C)[C@H]([C@H](OC(=O)c3ccccc3)[C@]3(O)C[C@H](OC(=O)[C@H](O)[C@@H](NC(=O)c4ccccc4)c4ccccc4)C(C)=C1C3(C)C)[C@]1(OC(C)=O)CO[C@@H]1C[C@@H]2O [Paclitaxel]
[1]; 5 mg/kg i.v. daily for 3 weeks (FIG. 2)
  excised tumor weights, % inhibition versus control: 37.6%
[2]; Homo sapiens, Lu1, at 20 ng/mL, positive control, read-out: inhibition against Lu-1
  inhibition at 0.02 µg/mL: 56%
[3]; Homo sapiens, LNCaP, at 20 ng/mL, positive control, read-out: inhibition against LNCaP
  inhibition at 0.02 µg/mL: 89%
[4]; Homo sapiens, Col2, at 20 ng/mL, positive control, read-out: inhibition against Col2
  inhibition at 0.02 µg/mL: 76%
[5]; Lu1-IP, dose 2.0 mg/kg
  Inhibition (%): 39.9%
[5]; Lu1-SC, dose 2.0 mg/kg
  Inhibition (%): 0%
[6]; Homo sapiens, MCF7, at 20 ng/mL, positive control, read-out: inhibition against MCF-7
  inhibition at 0.02 µg/mL: 71%
[7]; Col2-SC, dose 2.0 mg/kg
  Inhibition (%): 6.9%
[8]; MCF7-IP, dose 2.0 mg/kg
  Inhibition (%): 71.3%
[8]; MCF7-SC, dose 2.0 mg/kg
  Inhibition (%): 0%

## COc1cc2cc(c1Cl)N1CC(C)C(C)(O)C(=O)N[C@@H](C)C(=O)O[C@@H](CC1=O)[C@]1(C)OC1[C@H](C)[C@@H]1C[C@@](O)(NC(=O)O1)[C@H](OC)/C=C/C=C(\C)C2 (some centres unmarked) [Compound 1, Loeseneriellin B]
[9]
  bioactivity compared with maytansine (3): comparable bioactivity to that of maytansine
[1]; high dose 40 μg/kg i.v. daily for 3 weeks (FIG. 2)
  excised tumor weights, % inhibition versus control: 41.7%
[1]; high dose 40 μg/kg i.v. daily
  average tumor size (L×W×W) suppressed in comparison with the control group: 41.7%
[1]; low dose 20 μg/kg i.v. daily for 3 weeks (FIG. 2)
  excised tumor weights, % inhibition versus control: 38.3%
[1]; low dose 20 μg/kg i.v. daily
  average tumor size (L×W×W) suppressed in comparison with the control group: 38.3%
[2]; Homo sapiens, Lu1, read-out: IC50 Lu1
  IC50: 0.71 nM
[3]; Homo sapiens, LNCaP
  IC50: 0.25 nM
[4]; Homo sapiens, Col2, read-out: IC50 Col2
  IC50: 0.2 nM
[10]
  body weights of mice: No apparent weight loss; also recorded: insignificant change in body weights
[5]; Lu1-IP, dose 0.05 mg/kg
  Inhibition (%): 34.9%
[5]; Lu1-IP, dose 0.1 mg/kg
  Inhibition (%): 20.9%
[5]; Lu1-SC, dose 0.05 mg/kg
  Inhibition (%): 0%
[5]; Lu1-SC, dose 0.1 mg/kg
  Inhibition (%): 0%
[6]; Homo sapiens, MCF7, read-out: IC50 MCF-7
  IC50: 0.68 nM
[7]; Col2-IP, dose 0.05 mg/kg, listed as Loeseneriellin B
  Inhibition (%): 65.5%
[7]; Col2-IP, dose 0.05 mg/kg, listed as loeseneriellin B
  Inhibition (%): more than 65%
[7]; Col2-IP, dose 0.1 mg/kg
  Inhibition (%): 70.5%
[7]; Col2-SC, dose 0.05 mg/kg
  Inhibition (%): 0%
[7]; Col2-SC, dose 0.1 mg/kg
  Inhibition (%): 1.4%
[8]; MCF7-IP, dose 0.05 mg/kg, listed as Loeseneriellin B
  Inhibition (%): 57.2%
[8]; MCF7-IP, dose 0.05 mg/kg, listed as loeseneriellin B
  Inhibition (%): more than 65%
[8]; MCF7-IP, dose 0.1 mg/kg
  Inhibition (%): 75.5%
[8]; MCF7-IP, dose 0.2 mg/kg
  Inhibition (%): 84.6%
[8]; MCF7-SC, dose 0.05 mg/kg
  Inhibition (%): 0%
[8]; MCF7-SC, dose 0.1 mg/kg
  Inhibition (%): 0%
[8]; MCF7-SC, dose 0.2 mg/kg
  Inhibition (%): 40.1%
[11]; Homo sapiens, KB
  IC50: 0.15 nM

## COc1cc2cc(c1Cl)N(C)C(=O)C[C@H](OC(=O)[C@H](C)N(C)C(C)=O)[C@]1(C)O[C@H]1[C@H](C)[C@@H]1C[C@@](O)(NC(=O)O1)[C@H](OC)/C=C/C=C(\C)C2 [Compound 3, Maytansine]
[12]
  systemic toxicity in human clinical trials: unacceptable systemic toxicity
[2]; [15]
  IC50: 0.77 nM
[3]; [16]
  IC50: 0.32 nM
[4]; [17]
  IC50: 0.19 nM
[6]; [18]
  IC50: 0.69 nM
[11]; [16]
  IC50: 0.17 nM

## COc1cc2cc(c1Cl)N1CCC(C)(O)C(=O)N[C@@H](C)C(=O)O[C@@H](CC1=O)[C@]1(C)OC1[C@H](C)[C@@H]1C[C@@](O)(NC(=O)O1)[C@H](OC)/C=C/C=C(\C)C2OC (some centres unmarked) [treflorine]
[13]
  antitumor activity against KB cells: retain antitumor activity
[14]
  antitumor activity against P388 lymphocytic leukemia: retain antitumor activity

## COc1cc2cc(c1Cl)N(C)C(=O)CC(OC(=O)C(C)N(C)C(=O)CC(C)C)C1(C)OC1C(C)C1CC(O)(NC(=O)O1)C(OC)/C=C/C=C(\C)C2 (centres unmarked) [Compound 6, Maytanvaline]
[2]; [15]
  IC50: 0.69 nM
[3]; [16]
  IC50: 0.16 nM
[4]; [17]
  IC50: 0.15 nM
[6]; [18]
  IC50: 0.27 nM
[11]; [16]
  IC50: 0.11 nM

## COc1cc2cc(c1Cl)N1CC(O)C(C)(O)C(=O)N[C@@H](C)C(=O)O[C@@H](CC1=O)[C@]1(C)OC1[C@H](C)[C@@H]1C[C@@](O)(NC(=O)O1)[C@H](OC)/C=C/C=C(\C)C2OC (some centres unmarked) [trenudine]
[13]
  antitumor activity against KB cells: retain antitumor activity
[14]
  antitumor activity against P388 lymphocytic leukemia: retain antitumor activity

## CC[C@]1(O)C[C@@H]2CN(CCc3c([nH]c4ccccc34)[C@@](C(=O)OC)(c3cc4c(cc3OC)N(C)[C@H]3[C@@](O)(C(=O)OC)[C@H](OC(C)=O)[C@]5(CC)C=CCN6CC[C@]43[C@@H]65)C2)C1 [vinblastine, Vinblastine]
[2]; Homo sapiens, Lu1, at 40 ng/mL, positive control, read-out: inhibition against Lu-1
  inhibition at 0.04 µg/mL: 54%
[3]; Homo sapiens, LNCaP, at 40 ng/mL, positive control, read-out: inhibition against LNCaP
  inhibition at 0.04 µg/mL: 89%
[4]; Homo sapiens, Col2, at 40 ng/mL, positive control, read-out: inhibition against Col2
  inhibition at 0.04 µg/mL: 87%
[6]; Homo sapiens, MCF7, at 40 ng/mL, positive control, read-out: inhibition against MCF-7
  inhibition at 0.04 µg/mL: 70%

## COc1cc2cc(c1Cl)N(C)C(=O)C[C@H](OC(=O)C(C)N(C)C(=O)C(C)C)[C@]1(C)O[C@H]1[C@H](C)[C@@H]1C[C@@](O)(NC(=O)O1)[C@H](OC)/C=C/C=C(\C)C2 (some centres unmarked) [Compound 5, Maytanbutine]
[2]; [15]
  IC50: 0.13 nM
[3]; [16]
  IC50: 0.054 nM
[4]; [17]
  IC50: 0.061 nM
[6]; [18]
  IC50: 0.13 nM
[11]; [16]
  IC50: 0.05 nM

## CCC(=O)N(C)[C@@H](C)C(=O)O[C@H]1CC(=O)N(C)c2cc(cc(OC)c2Cl)C/C(C)=C/C=C[C@@H](OC)[C@@]2(O)C[C@H](OC(=O)N2)[C@@H](C)[C@@H]2O[C@@]12C [Compound 4, Maytanprine]
[2]; [15]
  IC50: 0.35 nM
[3]; [16]
  IC50: 0.16 nM
[4]; [17]
  IC50: 0.16 nM
[6]; [18]
  IC50: 0.17 nM
[11]; [16]
  IC50: 0.061 nM

## Loeseneriellin A [Compound 2]
[2]; [15]
  IC50: 0.38 nM
[3]; [16]
  IC50: 0.18 nM
[4]; [17]
  IC50: 0.18 nM
[6]; [18]
  IC50: 0.19 nM
[11]; [16]
  IC50: 0.1 nM
